The structures appear in SMILES notation.

This data set is described as follows: Human HepG2 cell viability assay in 384 well format. Further details: dose 125 nL, time 70.5 hour; concentration not given beside the values. The format is toxicity, cell-based. Conditions: HepG2 cells, read-out: Inhibition.

Consider `COc1ccccc1CC(=O)N1CC[C@H](O)[C@]2(CCCO2)C1`, for which the cytotoxicity at 70.5 h was -6.73%.

On to `C[C@]1(O)CN(Cc2ncccc2F)CC[C@@H]1Oc1cccc(F)c1`, for which the cytotoxicity at 70.5 h was -5.53%.

As to `COc1cc(CN2C[C@H](OC)[C@]3(CCCO3)C2)ccc1F`, the cytotoxicity at 70.5 h came to 19.1%. Consider `Cc1cccc(CC2COCCN(Cc3nccn3C)C2)n1` (configuration not stated), for which the cytotoxicity at 70.5 h is -2.76%. Turning to `CNC(=O)C1CN(C(=O)COc2ccccc2)Cc2cn(C)nc21` (configuration not stated), the cytotoxicity at 70.5 h was -3.29%. As for `O=C(c1c[nH]c(=O)[nH]c1=O)N1CCCC(c2cnccn2)C1` (configuration not stated), the cytotoxicity at 70.5 h is -2.78%.

Take `C[C@]1(O)CN(CCC(N)=O)CC[C@@H]1Oc1cccc(F)c1`: the cytotoxicity at 70.5 h is -0.798%.

On to `Cc1cncc(C2CCCN(C(=O)c3cn(C)nc3C)C2)n1` (configuration not stated), for which the cytotoxicity at 70.5 h was -3.29%.

Regarding `Cc1csc(C(=O)N2CCCC(c3[nH]ncc3S(C)(=O)=O)C2)c1` (configuration not stated), the cytotoxicity at 70.5 h was -0.679%. Consider `Cc1cncc(C2CCCN(Cc3ccncc3)C2)n1` (configuration not stated), for which the cytotoxicity at 70.5 h came to 13.6%. On to `CC(=O)N1CCCC(Cc2nccn2C)C1` (configuration not stated), for which the cytotoxicity at 70.5 h was -5.45%. The value for `O=C(COc1cccc(F)c1)N1C[C@@H](O)[C@H](N2CCOCC2)C1` was -5.2%; that for `Cc1cccc(C2CCCN2S(=O)(=O)N(C)C)n1` (configuration not stated) was -2.59%; that for `Cc1c[nH]nc1C1CCCCN1C(=O)CCn1nccc1C` (configuration not stated) was 11.5%.

Regarding `CO[C@H]1CN(Cc2ccccc2F)C[C@@]12CCCO2`, the cytotoxicity at 70.5 h was -5.8%. The value for `CN1CCC(c2cc(C(F)(F)F)n3ccnc3n2)CC1` was 24.8%; that for `Cc1nccn1-c1cncc(C2CCCN2Cc2cccnc2)n1` (configuration not stated) was 19.3%. On to `c1cnc(N2CCCC(c3cncc(-n4ccnc4)n3)C2)nc1` (configuration not stated), for which the cytotoxicity at 70.5 h worked out at 13.4%. On to `COCc1cc(O)nc(C2CCCN(Cc3cccc(Cl)c3Cl)C2)n1` (configuration not stated), for which the cytotoxicity at 70.5 h was -4.6%.

Consider `COc1cc2nc3n(c(=O)c2cc1OC)CCN(C(=O)C(C)(C)C)CC3`, for which the cytotoxicity at 70.5 h was -1.33%. As for `OC1CCN(Cc2c(-c3ccco3)[nH]c3ncccc23)CC1`, the cytotoxicity at 70.5 h is -5.94%. The value for `COc1ccc(CN2CCC(c3cc(O)nc(C)n3)C2)c(F)c1` (configuration not stated) was -1.14%. On to `CCc1cc(C(=O)N2CCc3nc4c(C)csc4c(=O)n3CC2)on1`, for which the cytotoxicity at 70.5 h is 20.2%. Consider `O=C(C1CCCC1)N1CCC(c2n[nH]c3nccnc23)CC1`, for which the cytotoxicity at 70.5 h is -1.92%. For `COc1ccc(OC)c(CN2CCC(c3cc(O)nc(C)n3)C2)c1` (configuration not stated), the cytotoxicity at 70.5 h was 22.5%.

Turning to `COCc1cc(O)nc(C2CCCN(Cc3ccc(OC)cc3)C2)n1` (configuration not stated), the cytotoxicity at 70.5 h was -2.96%. As to `COc1ncc(C2(O)CCN(Cc3cc(F)cc(F)c3)CC2)c(OC)n1`, the cytotoxicity at 70.5 h is -2.18%. `CC(=O)NC[C@]1(O)CCN(C(=O)c2ccc(C)c(F)c2)C[C@H]1O`: the cytotoxicity at 70.5 h was -2.74%. For the molecule `O=C(N[C@@H]1CN(Cc2ccc3cc[nH]c3c2)C[C@H]1O)c1cnccn1`, the cytotoxicity at 70.5 h was -5.2%. Consider `O=C(N[C@@H]1CN(Cc2cccc(F)c2)C[C@H]1O)c1cscn1`, for which the cytotoxicity at 70.5 h was -4.57%. For the molecule `CN(c1ccncn1)C1CC2(CCN(C(=O)c3cncs3)C2)C1` (configuration not stated), the cytotoxicity at 70.5 h was -2.06%.

For `CN(C(=O)C1CCOCC1)[C@@H]1CCC[C@@H](N2CCCC2)[C@@H]1O`, the cytotoxicity at 70.5 h is -3.82%. In the case of `Cc1cnc(C2CCCN(C(=O)c3c[nH]c(=O)[nH]c3=O)C2)s1` (configuration not stated) it was -8.7%. Regarding `Cc1cccc(CN2CCC(c3nnc(-c4scnc4C)o3)CC2)c1`, the cytotoxicity at 70.5 h amounted to 0.33%.

Regarding `Cc1ncsc1-c1nnc(C2CCN(Cc3ccc(Cl)cc3)CC2)o1`, the cytotoxicity at 70.5 h is 32.1%.

With `CC(=O)N1CCCC1c1cc(N2CCN(CC(C)(C)C)CC2)cc(C)n1` (configuration not stated), the cytotoxicity at 70.5 h was -7.87%. In the case of `CNc1cncc(C2CCCN2C(=O)c2ccc3c(c2)CCC3)n1` (configuration not stated) it was 9.47%; in that of `CCC(=O)N1CCCC1c1csc(Nc2cnccn2)n1` (configuration not stated), -9.64%.

For `CC(=O)N1CCCC(c2cccc(-n3ccnc3)n2)C1` (configuration not stated), the cytotoxicity at 70.5 h is -7.9%. On to `c1cnc(N2CCC(c3n[nH]c4ncccc34)C2)nc1` (configuration not stated), for which the cytotoxicity at 70.5 h was -7.93%.

As to `Cc1ncccc1Oc1nccnc1C1CCCN(C(C)C)C1` (configuration not stated), the cytotoxicity at 70.5 h was -6.39%. In the case of `Cc1ccc(Oc2nccnc2C2CCN(C(=O)C(C)(C)N)CC2)cc1`, the cytotoxicity at 70.5 h is -6.45%. In the case of `CCc1cc(=O)[nH]c(-c2ccc(NC(CO)CC(C)C)nc2)n1` (configuration not stated) it was -2.63%. With `CC(CNC(=O)CCCn1cncn1)N1CCc2ccccc2C1` (configuration not stated), the cytotoxicity at 70.5 h was 11.6%. Turning to `CC(C)C(CNC(=O)CCn1cncn1)N1CCc2ccccc2C1` (configuration not stated), the cytotoxicity at 70.5 h is -6.95%. In the case of `Cc1cccc(N2CCN(C(=O)CNCCn3cccn3)CC2)c1`, the cytotoxicity at 70.5 h amounted to 9.75%.

With `Cc1ccc(S(C)(=O)=O)cc1NCC(=O)NCCC1=CCCCC1`, the cytotoxicity at 70.5 h is -9.03%. On to `COC(=O)c1cccc(S(=O)(=O)NCC(c2ccco2)N2CCCC2)c1` (configuration not stated), for which the cytotoxicity at 70.5 h was -14.2%. Turning to `COCCNC(=O)NCc1ccc(-n2ccc(C(F)(F)F)n2)cc1`, the cytotoxicity at 70.5 h was -7.44%. As to `COC(=O)c1ccc2c(c1)CCCN2S(=O)(=O)c1cn(C)c(C)n1`, the cytotoxicity at 70.5 h was determined as 1.33%. In the case of `COC(=O)C1CCN(C(=O)Cn2ccc(-c3ccccc3)n2)CC1` it was -10.6%; in that of `Cc1cccc(N2CCN(C(=O)CNCCn3cc(C)cn3)CC2)c1`, 45%. As to `CC(C)c1noc(OCC(=O)N2CCCCC2C)n1` (configuration not stated), the cytotoxicity at 70.5 h was -2.39%. Regarding `CC1CCCCN1C(=O)COc1nc(C(C)(C)C)no1` (configuration not stated), the cytotoxicity at 70.5 h is -2.52%. Consider `CCOC(=O)C1(NC(=O)CCNc2cc(C)ccc2OC)CCCCC1`, for which the cytotoxicity at 70.5 h is -4.71%.

In the case of `O=C(c1ccc2[nH]cnc2c1)N1CCC(COc2ccccn2)CC1`, the cytotoxicity at 70.5 h was -5.85%.

In the case of `c1cc(N2CCC(CN3CCOCC3)CC2)c2sccc2n1`, the cytotoxicity at 70.5 h came out at 0.228%. Take `CNS(=O)(=O)c1c(C)sc2ccccc12`: the cytotoxicity at 70.5 h was -0.847%.

On to `NC(=O)C1CCN(C(=O)NC(Cc2ccccc2)C(F)(F)F)CC1` (configuration not stated), for which the cytotoxicity at 70.5 h was determined as 3.75%. Take `CC(C)(C)CC(NC(=O)N1CCS(=O)(=O)CC1)C(F)(F)F` (configuration not stated): the cytotoxicity at 70.5 h was -4.28%. In the case of `CC(C)(C)CC(NC(=O)N1CCC(C(N)=O)CC1)C(F)(F)F` (configuration not stated), the cytotoxicity at 70.5 h came to 5.66%. For the molecule `CC(C)(NCCOc1ccc(CC#N)cc1)c1nccs1`, the cytotoxicity at 70.5 h was -2.87%. With `CCC(CNC(=O)c1cccc(S(=O)(=O)NC)c1)N1CCCC1` (configuration not stated), the cytotoxicity at 70.5 h is -2.78%. As to `CC1CCCCN1C(=O)COc1nc(Cc2ccc(F)cc2)no1` (configuration not stated), the cytotoxicity at 70.5 h is -6.78%. Turning to `Cc1cc(C)cc(NCCC(=O)NCc2cccnc2N(C)C)c1`, the cytotoxicity at 70.5 h is -5.81%. Regarding `CN(CCc1ccncc1)CCc1nccs1`, the cytotoxicity at 70.5 h was -12.8%.

As for `COCC1CCN(c2ccnc3ccsc23)C1` (configuration not stated), the cytotoxicity at 70.5 h is -5.48%. Turning to `CN(CCc1cccs1)CCc1nccs1`, the cytotoxicity at 70.5 h was determined as 0.685%. On to `CC(CNC(=O)N(C)Cc1ccco1)N1CCc2sccc2C1` (configuration not stated), for which the cytotoxicity at 70.5 h was 4.72%. As to `CC(CNC(=O)NCc1ccco1)N1CCc2sccc2C1` (configuration not stated), the cytotoxicity at 70.5 h worked out at 36.1%. `CCn1c(=O)n(CCC(=O)N(C)Cc2ccc(C)o2)c2ccccc21`: the cytotoxicity at 70.5 h is -4.18%. On to `Cn1c(CN2CCC(N3CCNC3=O)CC2)cc(=O)n(C)c1=O`, for which the cytotoxicity at 70.5 h was -7.49%. Turning to `CC(=O)N1CCC(NC(=O)Cc2nc3nc(C)cc(C)n3n2)CC1`, the cytotoxicity at 70.5 h is -3.83%. For the molecule `CC(Cn1cccn1)Nc1cnc2ccccc2n1` (configuration not stated), the cytotoxicity at 70.5 h was -0.212%. With `Cc1cnn(CC(C)Nc2nc3ccccc3o2)c1` (configuration not stated), the cytotoxicity at 70.5 h was determined as 24.3%. In the case of `Cc1cnn(CCNc2cnc3ccccc3n2)c1` it was -1.2%; in that of `Cc1ccc(C(C)NC(=O)CSCC(N)=O)cc1` (configuration not stated), -0.981%.

Regarding `O=C(CCc1ccccc1)NCC(O)c1c(F)cccc1F` (configuration not stated), the cytotoxicity at 70.5 h is -3.12%. With `CS(=O)(=O)CCNC(=O)Nc1ccc(Cl)cc1-n1cccc1`, the cytotoxicity at 70.5 h worked out at 23.7%. In the case of `O=C(Nc1cnn(-c2ccccc2Cl)c1)NC1CCC(O)CC1` (configuration not stated) it was 23.9%; in that of `COCCC(=O)NCC(O)c1c(F)cccc1F` (configuration not stated), -7.9%; in that of `CCOCCS(=O)(=O)c1nnc(NCCOC)s1`, 23.1%. As to `COc1ccc(C2CCN(Cc3cscn3)CC2)cc1`, the cytotoxicity at 70.5 h is 0.308%.

`Cc1ccc(C(C)NC(=O)CCc2cnn(C)c2)cc1F` (configuration not stated): the cytotoxicity at 70.5 h is -8.21%. Regarding `CNC(=O)N(C)CC1(c2ccc(Br)cc2)CC1`, the cytotoxicity at 70.5 h was -3.73%. For `CN(Cc1ccco1)C(=O)C1CCCc2ccccc21` (configuration not stated), the cytotoxicity at 70.5 h was -3.68%. As to `CCC(c1ccc(F)cc1F)N1CCN(CCO)CC1` (configuration not stated), the cytotoxicity at 70.5 h is -6.18%.

Regarding `CC(CNC(=O)CCc1ccco1)N1CCc2sccc2C1` (configuration not stated), the cytotoxicity at 70.5 h is 3.4%. In the case of `N#CCCN(Cc1ccco1)C(=O)C1CCCc2ccccc21` (configuration not stated) it was -6.61%. As to `CCSCc1ccc(C(=O)N2CCCN(CC(N)=O)CC2)cc1`, the cytotoxicity at 70.5 h is -5.22%. In the case of `Cn1cccc1C(=O)COc1ccc(S(N)(=O)=O)cc1`, the cytotoxicity at 70.5 h turned out to be 0.32%. In the case of `Cc1ccc(NC(=O)NCC2CCS(=O)(=O)C2)cc1Cl` (configuration not stated), the cytotoxicity at 70.5 h was 0.575%. Turning to `COc1cc(C(C)=O)ccc1OCC(=O)c1cccn1C`, the cytotoxicity at 70.5 h was 32.2%.

As for `N#CCSCC(=O)NCC1CCCCC1`, the cytotoxicity at 70.5 h was -7.13%. For the molecule `O=C(NCC1CCS(=O)(=O)C1)c1ccco1` (configuration not stated), the cytotoxicity at 70.5 h was -8.58%. In the case of `O=C(c1cccc(F)c1)N1CCCC1c1ncc2c(n1)CCNC2` (configuration not stated), the cytotoxicity at 70.5 h was -4.38%. For `COc1ncc(C2(O)CCN(Cc3cc(F)ccc3F)CC2)c(OC)n1`, the cytotoxicity at 70.5 h is -5.13%. As for `CC(C)(N)CNS(=O)(=O)Cc1cccc2cccnc12`, the cytotoxicity at 70.5 h worked out at 1.51%. Take `Cc1cc(C[C@@H]2CCC[C@H]2NCc2c[nH]nc2-c2ccccc2)on1`: the cytotoxicity at 70.5 h is 20.7%. For the molecule `CC1(C)CC(N(Cc2ccncc2)Cc2cccnc2)CC(C)(C)N1`, the cytotoxicity at 70.5 h is 27.1%. Turning to `Cc1ccsc1CN(Cc1cccnc1)C1CC(C)(C)NC(C)(C)C1`, the cytotoxicity at 70.5 h was determined as 5.95%.

With `Cc1cc(C[C@@H]2CCC[C@H]2NCc2cccc(F)c2F)on1`, the cytotoxicity at 70.5 h was -2.88%.

Values taken from ChEMBL document CHEMBL3507680, “University of Dundee, Gates Library screen for HepG2 cell viability”.
